{
  "source": "patent US10065927B2",
  "about": "“α-ketoacylic isoniazid compounds, process for producing said compounds, use of the compounds in the treatment of tuberculosis” (priority 2015, dated 2018)",
  "system": "M. tuberculosis isoniazid resistant strain",
  "experiment": "microbe, parasite or virus in culture",
  "assay_type": "cell-based",
  "conditions": "Mycobacterium tuberculosis",
  "data": [
    {"smiles": "CC(=O)Nc1ccccc1C(=O)C(=O)NNC(=O)c1ccncc1", "note": "[Compound 2, N-(2-(2-(2-Isonicotinoylhydrazine)-2-Oxoacetyl)Phenyl) Acetamide]", "values": [
      {"measurement": "MIC", "result": 19.2, "unit": "µM"}
    ]},
    {"smiles": "NNC(=O)c1ccncc1", "note": "[Isoniazid]", "values": [
      {"measurement": "MIC", "result": "> 73", "unit": "µM"}
    ]}
  ]
}
